Earlier results in patent US20170027908A1, “Pharmaceutical Composition” (CIPLA Limited, priority 2011, published 2017).

What was measured:
[1] = system: airway hyperresponsiveness; conditions: as compared to fluticasone propionate
[2] = in vivo

C[C@@H]1C[C@H]2[C@@H]3C[C@H](F)C4=CC(=O)C=C[C@]4(C)[C@@]3(F)[C@@H](O)C[C@]2(C)[C@@]1(OC(=O)c1ccco1)C(=O)SCF [fluticasone furoate]
prolonged protection against airway hyperresponsiveness [1]: up to 26 hours | elimination half life [2]: 15.1 h
